Tests used:
[1] = target: 5-HT2a (human recombinant receptor, CHO-K1) (Homo sapiens, UniProt P28223); test: Radioligand binding assay, 5-HT2a
D2 (hD2L receptor) = target: T1, D2 (hD2L receptor) (Homo sapiens, UniProt P14416); test: Radioligand binding assay, dopamine D2; details: [3H] spiperone 1 nM; read-out: Binding affinity IC50 D2
T1 construct: purchased BioSignal Packard Inc., Montreal, Canada
Method: (§1) Radioligand binding assays for dopamine receptor family (D1, D2 and D3) were performed according to the protocols provided by the manufacturer of receptor membranes (BioSignal Packard Inc., Montreal, Canada). The radioligands used were [^3H] spiperone (for hD2L and hD3 receptors, 1 nM) and [^3H] YM-09151-2 (hD4.2 receptor, 0.06 nM). Briefly, the buffer used in the D1, D2 and D3 receptor binding assay was 50 mM Tris-HCl (pH 7.4), containing 10 mM MgCl2 and 1 mM EDTA, or 50 mM Tris-HCl (pH 7.4), containing 5 mM MgCl2, 5 mM EDTA, 5 mM KCl, 1.5 mM CaCl2 and 120 mM NaCl. For [^3H] YM-09151-2 receptor binding assays, 50 mM Tris-HCl (pH 7.4) containing 5 mM MgCl2, 5 mM EDTA, 5 mM KCl and 1.5 mM CaCl2, was used as a buffer. Nonspecific binding was determined with haloperidol (10 μM) for D2 and D3 and clozapine (10 μM) for D4 receptors.
(§2) Competition binding studies were carried out with 7-8 concentrations of the test compound run in duplicate tubes, and isotherms from three assays were calculated by computerized nonlinear regression analysis (GraphPad Prism Program, San Diego, […]) to yield median inhibitory concentration (IC50) values.

[2] = target: T2, 5-HT2c (human recombinant receptor, CHO-K1) (Homo sapiens, UniProt P28335); test: Radioligand binding assay, 5-HT2c
T2 sequence (P28335 33-458): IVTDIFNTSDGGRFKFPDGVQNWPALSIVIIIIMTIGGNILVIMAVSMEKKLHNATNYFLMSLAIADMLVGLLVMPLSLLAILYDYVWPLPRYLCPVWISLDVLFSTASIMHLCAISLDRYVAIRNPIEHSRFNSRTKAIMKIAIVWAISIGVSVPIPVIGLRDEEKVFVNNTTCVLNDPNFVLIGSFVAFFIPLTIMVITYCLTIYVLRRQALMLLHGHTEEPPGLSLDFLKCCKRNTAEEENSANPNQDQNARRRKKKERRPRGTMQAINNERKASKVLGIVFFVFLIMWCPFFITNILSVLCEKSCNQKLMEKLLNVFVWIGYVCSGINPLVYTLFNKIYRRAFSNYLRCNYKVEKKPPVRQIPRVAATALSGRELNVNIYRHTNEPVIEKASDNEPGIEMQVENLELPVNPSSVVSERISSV

[3] = target: human serotonin 5-HT6 receptor (Homo sapiens, UniProt P50406); test: [3H]LSD binding assay for cloned 5-HT6 receptors
Chain of human serotonin 5-HT6 receptor (P50406 whole entry): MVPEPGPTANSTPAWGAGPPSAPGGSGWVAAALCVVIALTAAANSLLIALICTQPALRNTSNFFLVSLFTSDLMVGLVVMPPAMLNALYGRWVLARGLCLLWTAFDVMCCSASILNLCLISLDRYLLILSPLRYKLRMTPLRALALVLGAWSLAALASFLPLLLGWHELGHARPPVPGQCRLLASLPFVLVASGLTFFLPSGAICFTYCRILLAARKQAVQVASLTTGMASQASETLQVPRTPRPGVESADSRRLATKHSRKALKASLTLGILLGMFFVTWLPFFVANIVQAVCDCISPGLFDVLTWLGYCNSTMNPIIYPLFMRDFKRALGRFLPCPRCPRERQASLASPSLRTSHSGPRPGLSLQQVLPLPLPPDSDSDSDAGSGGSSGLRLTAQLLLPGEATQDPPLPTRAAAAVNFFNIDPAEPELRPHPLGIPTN

[4] = target: 5-HT7 (human recombinant receptor, CHO-K1) (Homo sapiens, UniProt P34969); test: Radioligand binding assay, 5-HT7
Chain of 5-HT7 (human recombinant receptor, CHO-K1) (P34969 whole entry): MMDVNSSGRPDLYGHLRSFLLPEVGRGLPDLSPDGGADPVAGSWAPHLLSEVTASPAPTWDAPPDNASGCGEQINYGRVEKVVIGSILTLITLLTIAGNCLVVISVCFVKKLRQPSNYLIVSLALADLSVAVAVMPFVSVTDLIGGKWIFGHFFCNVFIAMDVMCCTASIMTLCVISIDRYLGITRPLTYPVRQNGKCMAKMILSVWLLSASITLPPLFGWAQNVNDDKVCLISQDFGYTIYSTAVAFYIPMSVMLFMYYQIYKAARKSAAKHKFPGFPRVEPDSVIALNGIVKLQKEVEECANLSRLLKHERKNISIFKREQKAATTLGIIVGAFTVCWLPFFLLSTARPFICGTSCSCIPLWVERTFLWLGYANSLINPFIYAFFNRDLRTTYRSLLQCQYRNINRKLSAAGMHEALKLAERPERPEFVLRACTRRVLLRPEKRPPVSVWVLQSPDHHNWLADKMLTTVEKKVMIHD

D3 (hD3 receptor) = D3 (hD3 receptor) (Homo sapiens, UniProt P35462); test: Radioligand binding assay, dopamine D3
Chain of D3 (hD3 receptor) (P35462 whole entry): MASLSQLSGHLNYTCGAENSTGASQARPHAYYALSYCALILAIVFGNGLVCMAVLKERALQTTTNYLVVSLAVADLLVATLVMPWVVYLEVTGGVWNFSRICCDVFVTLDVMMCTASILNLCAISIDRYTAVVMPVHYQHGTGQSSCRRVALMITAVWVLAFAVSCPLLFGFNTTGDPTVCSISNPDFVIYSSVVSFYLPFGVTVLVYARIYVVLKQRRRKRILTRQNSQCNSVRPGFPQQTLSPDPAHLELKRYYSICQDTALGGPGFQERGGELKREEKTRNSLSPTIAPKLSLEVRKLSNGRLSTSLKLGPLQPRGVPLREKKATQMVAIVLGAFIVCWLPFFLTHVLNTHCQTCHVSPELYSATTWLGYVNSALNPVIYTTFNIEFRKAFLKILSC

D4 (hD4.2 receptor) = target: T3, D4 (hD4.2 receptor) (Homo sapiens, UniProt P21917, DEL265-296); test: Radioligand binding assay, dopamine D4; details: [3H] YM-09151-2 0.06 nM; read-out: Binding affinity IC50 D4
T3 construct: purchased BioSignal Packard Inc., Montreal, Canada
T3 sequence (P21917 with tags, fused parts or gaps DEL265-296): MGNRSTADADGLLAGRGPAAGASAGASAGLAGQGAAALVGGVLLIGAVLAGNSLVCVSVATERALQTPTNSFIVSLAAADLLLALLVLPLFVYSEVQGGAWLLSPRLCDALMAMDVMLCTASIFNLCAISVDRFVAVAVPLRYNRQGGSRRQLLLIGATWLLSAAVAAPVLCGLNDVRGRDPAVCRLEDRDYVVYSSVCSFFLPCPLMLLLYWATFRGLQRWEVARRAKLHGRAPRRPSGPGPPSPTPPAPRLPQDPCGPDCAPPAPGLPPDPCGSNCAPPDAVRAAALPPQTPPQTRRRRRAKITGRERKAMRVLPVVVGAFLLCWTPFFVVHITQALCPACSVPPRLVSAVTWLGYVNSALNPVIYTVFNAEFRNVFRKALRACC
Method: as §1, §2

[5] = target: T4, 5-HT1a (human recombinant receptor, CHO-K1) (Homo sapiens, UniProt P08908); test: Radioligand binding assay, 5-HT1a
T4 sequence (P08908 1-422): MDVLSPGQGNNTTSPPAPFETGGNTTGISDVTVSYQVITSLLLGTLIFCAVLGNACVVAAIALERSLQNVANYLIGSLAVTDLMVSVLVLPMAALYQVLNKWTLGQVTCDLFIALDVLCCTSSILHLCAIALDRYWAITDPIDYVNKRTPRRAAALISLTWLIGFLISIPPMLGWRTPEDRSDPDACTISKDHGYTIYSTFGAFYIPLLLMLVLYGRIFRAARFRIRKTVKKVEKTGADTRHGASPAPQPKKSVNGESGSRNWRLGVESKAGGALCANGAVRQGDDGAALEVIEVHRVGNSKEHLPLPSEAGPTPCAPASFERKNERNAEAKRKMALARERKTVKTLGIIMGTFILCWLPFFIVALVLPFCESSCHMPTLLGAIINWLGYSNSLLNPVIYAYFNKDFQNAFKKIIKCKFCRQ

Chain of 5-HT2a (human recombinant receptor, CHO-K1) (P28223 whole entry): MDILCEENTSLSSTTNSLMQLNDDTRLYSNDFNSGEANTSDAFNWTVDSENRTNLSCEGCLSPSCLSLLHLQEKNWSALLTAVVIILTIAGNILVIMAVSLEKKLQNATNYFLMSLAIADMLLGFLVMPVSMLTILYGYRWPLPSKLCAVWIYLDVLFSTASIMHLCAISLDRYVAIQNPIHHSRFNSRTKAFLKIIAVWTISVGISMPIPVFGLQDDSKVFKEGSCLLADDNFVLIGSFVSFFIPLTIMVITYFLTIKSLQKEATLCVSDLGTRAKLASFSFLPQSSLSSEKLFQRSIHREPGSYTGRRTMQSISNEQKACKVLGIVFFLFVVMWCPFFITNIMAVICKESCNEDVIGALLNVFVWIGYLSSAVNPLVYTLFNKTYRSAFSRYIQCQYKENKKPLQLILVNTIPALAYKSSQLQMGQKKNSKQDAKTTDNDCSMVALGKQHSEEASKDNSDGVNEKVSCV
T1 sequence (P14416 whole entry): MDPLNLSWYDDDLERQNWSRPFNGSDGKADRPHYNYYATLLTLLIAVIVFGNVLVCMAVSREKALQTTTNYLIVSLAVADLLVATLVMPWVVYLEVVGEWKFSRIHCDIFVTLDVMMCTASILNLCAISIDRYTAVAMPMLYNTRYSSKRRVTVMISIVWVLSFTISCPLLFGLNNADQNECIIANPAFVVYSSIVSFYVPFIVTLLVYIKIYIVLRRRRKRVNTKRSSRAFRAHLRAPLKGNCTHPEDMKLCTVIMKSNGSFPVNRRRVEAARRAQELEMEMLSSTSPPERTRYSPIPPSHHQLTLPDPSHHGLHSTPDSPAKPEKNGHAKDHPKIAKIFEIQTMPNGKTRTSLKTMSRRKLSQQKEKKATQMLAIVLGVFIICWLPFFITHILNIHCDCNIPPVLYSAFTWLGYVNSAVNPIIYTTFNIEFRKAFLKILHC

Compound: CN1CCN(c2cc(Cl)cc3c2c(=O)n(Cc2ccccc2[N+](=O)[O-])c(=O)n3Cc2ccccc2)CC1 [Example 31, 1-benzyl-7-chloro-5-(4-methyl-piperazin-1-yl)-3-(2-nitro-benzyl)-1H-quinazoline-2,4-dione]
- IC50 [1]: 49 nM
- IC50 (D2 (hD2L receptor)): > 10000 nM
- IC50 [2]: 952 nM
- IC50 [3]: 1.4 nM
- IC50 [4]: > 10000 nM
- IC50 (D3 (hD3 receptor)): 1240 nM
- melting point: 164 to 169 °C
- IC50 (D4 (hD4.2 receptor)): > 10000 nM
- IC50 [5]: 2240 nM

Compound: CN1CCN(c2cc(Cl)cc3c2c(=O)n(Cc2cccc([N+](=O)[O-])c2)c(=O)n3Cc2ccccc2)CC1 [Example 32, 1-benzyl-7-chloro-5-(4-methyl-piperazin-1-yl)-3-(3-nitro-benzyl)-1H-quinazoline-2,4-dione]
- IC50 [1]: 1800 nM
- IC50 (D2 (hD2L receptor)): > 10000 nM
- IC50 [2]: 1560 nM
- IC50 [3]: 0.6 nM
- IC50 [4]: > 10000 nM
- IC50 (D3 (hD3 receptor)): 276 nM
- melting point: 200 to 205 °C
- IC50 (D4 (hD4.2 receptor)): > 10000 nM
- IC50 [5]: 3800 nM

Compound: Cc1cc(C)cc(CCCn2c(=O)c3c(N4CCN(C)CC4)cc(Cl)cc3n(Cc3ccccc3)c2=O)c1 [Example 44, 1-benzyl-7-chloro-3-[3-(3,5-dimethyl-phenyl)-propyl]-5-(4-methyl-piperazin-1-yl)-1H-quinazoline-2,4-dione]
- IC50 [1]: 197 nM
- IC50 (D2 (hD2L receptor)): 987 nM
- IC50 [2]: 2650 nM
- IC50 [3]: 2 nM
- IC50 [4]: > 10000 nM
- IC50 (D3 (hD3 receptor)): 73 nM
- melting point: 67 to 73 °C
- IC50 (D4 (hD4.2 receptor)): > 10000 nM
- IC50 [5]: 2780 nM

Compound: Cc1ccc(Cn2c(=O)c3c(N4CCN(C)CC4)cc(Cl)cc3n(Cc3ccccc3)c2=O)o1 [Example 47, 1-benzyl-7-chloro-3-(5-methyl-furan-2-ylmethyl)-5-(4-methyl-piperazin-1-yl)-1H-quinazoline-2,4-dione]
- IC50 [1]: 830 nM
- IC50 (D2 (hD2L receptor)): > 10000 nM
- IC50 [2]: 465 nM
- IC50 [3]: 1.4 nM
- IC50 [4]: 8740 nM
- IC50 (D3 (hD3 receptor)): 2810 nM
- melting point: 132 to 136 °C
- IC50 (D4 (hD4.2 receptor)): > 10000 nM
- IC50 [5]: 1140 nM

Compound: CN1CCN(c2cc(Br)cc3c2c(=O)n(Cc2ccccc2)c(=O)n3Cc2ccccc2)CC1 [Example 54, 1,3-dibenzyl-7-bromo-5-(4-methyl-piperazin-1-yl)-1H-quinazoline-2,4-dione]
- IC50 [1]: 376 nM
- IC50 (D2 (hD2L receptor)): > 10000 nM
- IC50 [2]: 646 nM
- IC50 [3]: 2.3 nM
- IC50 [4]: > 10000 nM
- IC50 (D3 (hD3 receptor)): 554 nM
- melting point: 80 to 84 °C
- IC50 (D4 (hD4.2 receptor)): > 10000 nM
- IC50 [5]: 5010 nM

Compound: CN1CCN(c2cc(Br)cc3c2c(=O)n(Cc2ccccc2Cl)c(=O)n3Cc2ccccc2)CC1 [Example 55, 1-benzyl-7-bromo-3-(2-chloro-benzyl)-5-(4-methyl-piperazin-1-yl)-1H-quinazoline-2,4-dione]
- IC50 [1]: 130 nM
- IC50 (D2 (hD2L receptor)): > 10000 nM
- IC50 [2]: 252 nM
- IC50 [3]: 1.5 nM
- IC50 [4]: 5140 nM
- IC50 (D3 (hD3 receptor)): 1440 nM
- melting point: 104 to 108 °C
- IC50 (D4 (hD4.2 receptor)): > 10000 nM
- IC50 [5]: 2720 nM

Compound: O=c1c2c(N3CCNCC3)cc(Cl)cc2n(Cc2ccccc2)c(=O)n1Cc1ccccc1F [Example 58, 1-benzyl-7-chloro-3-(2-fluoro-benzyl)-5-piperazin-1-yl-quinazoline-2,4-dione]
- IC50 [1]: 220 nM
- IC50 (D2 (hD2L receptor)): > 10000 nM
- IC50 [2]: 540 nM
- IC50 [3]: 0.6 nM
- IC50 [4]: > 10000 nM
- IC50 (D3 (hD3 receptor)): 3130 nM
- melting point: 98 to 109 °C
- IC50 (D4 (hD4.2 receptor)): > 10000 nM
- IC50 [5]: 2850 nM

Compound: O=c1c2c(N3CCNCC3)cc(Cl)cc2n(Cc2ccccc2)c(=O)n1Cc1ccccc1Cl [Example 59, 1-benzyl-7-chloro-3-(2-chloro-benzyl)-5-piperazin-1-yl-1H-quinazoline-2,4-dione]
- IC50 [1]: 132 nM
- IC50 (D2 (hD2L receptor)): > 10000 nM
- IC50 [2]: 198 nM
- IC50 [3]: 1.7 nM
- IC50 [4]: 7320 nM
- IC50 (D3 (hD3 receptor)): 381 nM
- melting point: 120 to 125 °C
- IC50 (D4 (hD4.2 receptor)): > 10000 nM
- IC50 [5]: 2160 nM

From patent publication US20090203708A1, “NOVEL SUBSTITUTED-1-H-QUINAZOLINE-2,4-DIONE DERIVATIVES, PREPARATION METHOD THEREOF AND PHARMACEUTICAL COMPOSITION CONTAINING THE SAME” (Korea Research Institute of Chemical Technology, priority 2006, published 2009)
